Experimental data published in PubChem BioAssay (NCI).
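Growth conditions: 96-well plates. Treatment: test compound, 48 hours, 5 concentrations. Analysis: linear interpolation between bracketing concentrations; unreached endpoints set to highest concentration. TGI is the concentration that stops growth completely.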

Assays:
Assay in all cases: DTP human tumour cell line panel, 48 h
786-0 renal = tested on: 786-0 renal
A498 renal = tested on: A498 renal
A549 NSCLC = tested on: A549 NSCLC
ACHN renal = tested on: ACHN renal
BT-549 breast = tested on: BT-549 breast
CAKI-1 renal = tested on: CAKI-1 renal
CCRF-CEM leukemia = tested on: CCRF-CEM leukemia
COLO 205 colon = tested on: COLO 205 colon
DU-145 prostate = tested on: DU-145 prostate
EKVX NSCLC = tested on: EKVX NSCLC
HCC-2998 colon = tested on: HCC-2998 colon
HCT-116 colon = tested on: HCT-116 colon
HCT-15 colon = tested on: HCT-15 colon
HOP-62 NSCLC = tested on: HOP-62 NSCLC
HOP-92 NSCLC = tested on: HOP-92 NSCLC
HS 578T breast = tested on: HS 578T breast
HT29 colon = tested on: HT29 colon
IGROV1 ovarian = tested on: IGROV1 ovarian
K-562 leukemia = tested on: K-562 leukemia
KM12 colon = tested on: KM12 colon
LOX IMVI melanoma = tested on: LOX IMVI melanoma
M14 melanoma = tested on: M14 melanoma
MALME-3M melanoma = tested on: MALME-3M melanoma
MCF7 breast = tested on: MCF7 breast
MDA-MB-231 breast = tested on: MDA-MB-231 breast
MDA-MB-435 = tested on: MDA-MB-435
MDA-N = tested on: MDA-N
MOLT-4 leukemia = tested on: MOLT-4 leukemia
NCI-H226 lung = tested on: NCI-H226 lung
NCI-H23 lung = tested on: NCI-H23 lung
NCI-H460 lung = tested on: NCI-H460 lung
NCI-H522 lung = tested on: NCI-H522 lung
NCI/ADR-RES ovarian = tested on: NCI/ADR-RES ovarian
OVCAR-3 ovarian = tested on: OVCAR-3 ovarian
OVCAR-5 ovarian = tested on: OVCAR-5 ovarian
OVCAR-8 ovarian = tested on: OVCAR-8 ovarian
PC-3 prostate = tested on: PC-3 prostate
RPMI-8226 leukemia = tested on: RPMI-8226 leukemia
RXF 393 renal = tested on: RXF 393 renal
SF-268 CNS = tested on: SF-268 CNS
SF-295 CNS = tested on: SF-295 CNS
SF-539 CNS = tested on: SF-539 CNS
SK-MEL-28 melanoma = tested on: SK-MEL-28 melanoma
SK-MEL-5 melanoma = tested on: SK-MEL-5 melanoma
SK-OV-3 ovarian = tested on: SK-OV-3 ovarian
SNB-19 CNS = tested on: SNB-19 CNS
SNB-75 CNS = tested on: SNB-75 CNS
SR leukemia = tested on: SR leukemia
SW-620 colon = tested on: SW-620 colon
TK-10 renal = tested on: TK-10 renal
U251 CNS = tested on: U251 CNS
UACC-257 melanoma = tested on: UACC-257 melanoma
UACC-62 melanoma = tested on: UACC-62 melanoma
UO-31 renal = tested on: UO-31 renal
HL-60(TB) leukemia = tested on: HL-60(TB) leukemia
SN12C renal = tested on: SN12C renal
T-47D breast = tested on: T-47D breast
OVCAR-4 ovarian = tested on: OVCAR-4 ovarian
SK-MEL-2 melanoma = tested on: SK-MEL-2 melanoma

## Cc1csc(NC23CC4CC(CC(C4)C2)C3)[n+]1C(P(=O)([O-])O)P(=O)(O)O (stereo not given)
786-0 renal
  TGI: > 100 µM
A498 renal
  TGI: > 100 µM
A549 NSCLC
  TGI: > 100 µM
ACHN renal
  TGI: > 100 µM
BT-549 breast
  TGI: > 100 µM
CAKI-1 renal
  TGI: > 100 µM
CCRF-CEM leukemia
  TGI: > 100 µM
COLO 205 colon
  TGI: > 100 µM
DU-145 prostate
  TGI: > 100 µM
EKVX NSCLC
  TGI: > 100 µM
HCC-2998 colon
  TGI: > 100 µM
HCT-116 colon
  TGI: > 100 µM
HCT-15 colon
  TGI: > 100 µM
HOP-62 NSCLC
  TGI: > 100 µM
HOP-92 NSCLC
  TGI: > 100 µM
HS 578T breast
  TGI: > 100 µM
HT29 colon
  TGI: > 100 µM
IGROV1 ovarian
  TGI: > 100 µM
K-562 leukemia
  TGI: > 100 µM
KM12 colon
  TGI: > 100 µM
LOX IMVI melanoma
  TGI: > 100 µM
M14 melanoma
  TGI: > 100 µM
MALME-3M melanoma
  TGI: > 100 µM
MCF7 breast
  TGI: > 100 µM
MDA-MB-231 breast
  TGI: > 100 µM
MDA-MB-435
  TGI: > 100 µM
MDA-N
  TGI: > 100 µM
MOLT-4 leukemia
  TGI: > 100 µM
NCI-H226 lung
  TGI: > 100 µM
NCI-H23 lung
  TGI: > 100 µM
NCI-H460 lung
  TGI: > 100 µM
NCI-H522 lung
  TGI: > 100 µM
NCI/ADR-RES ovarian
  TGI: > 100 µM
OVCAR-3 ovarian
  TGI: > 100 µM
OVCAR-5 ovarian
  TGI: > 100 µM
OVCAR-8 ovarian
  TGI: > 100 µM
PC-3 prostate
  TGI: > 100 µM
RPMI-8226 leukemia
  TGI: > 100 µM
RXF 393 renal
  TGI: > 100 µM
SF-268 CNS
  TGI: > 100 µM
SF-295 CNS
  TGI: > 100 µM
SF-539 CNS
  TGI: > 100 µM
SK-MEL-28 melanoma
  TGI: > 100 µM
SK-MEL-5 melanoma
  TGI: > 100 µM
SK-OV-3 ovarian
  TGI: > 100 µM
SNB-19 CNS
  TGI: > 100 µM
SNB-75 CNS
  TGI: > 100 µM
SR leukemia
  TGI: > 100 µM
SW-620 colon
  TGI: > 100 µM
TK-10 renal
  TGI: > 100 µM
U251 CNS
  TGI: > 100 µM
UACC-257 melanoma
  TGI: > 100 µM
UACC-62 melanoma
  TGI: > 100 µM
UO-31 renal
  TGI: > 100 µM

## CCC1(c2ccccc2)Sc2ccccc2-n2cccc2C1=O (stereo not given)
786-0 renal
  TGI: > 10 µM
A549 NSCLC
  TGI: > 10 µM
CAKI-1 renal
  TGI: > 10 µM
CCRF-CEM leukemia
  TGI: > 10 µM
COLO 205 colon
  TGI: > 10 µM
DU-145 prostate
  TGI: > 10 µM
EKVX NSCLC
  TGI: > 10 µM
HCC-2998 colon
  TGI: > 10 µM
HCT-15 colon
  TGI: > 10 µM
HL-60(TB) leukemia
  TGI: > 10 µM
HOP-62 NSCLC
  TGI: > 10 µM
HT29 colon
  TGI: > 10 µM
IGROV1 ovarian
  TGI: > 10 µM
K-562 leukemia
  TGI: > 10 µM
KM12 colon
  TGI: > 10 µM
M14 melanoma
  TGI: > 10 µM
MALME-3M melanoma
  TGI: > 10 µM
MCF7 breast
  TGI: > 10 µM
MDA-MB-231 breast
  TGI: > 10 µM
MDA-N
  TGI: > 10 µM
MOLT-4 leukemia
  TGI: > 10 µM
NCI-H23 lung
  TGI: > 10 µM
OVCAR-8 ovarian
  TGI: > 10 µM
PC-3 prostate
  TGI: > 10 µM
RPMI-8226 leukemia
  TGI: > 10 µM
RXF 393 renal
  TGI: > 10 µM
SF-295 CNS
  TGI: > 10 µM
SK-MEL-28 melanoma
  TGI: > 10 µM
SK-MEL-5 melanoma
  TGI: > 10 µM
SK-OV-3 ovarian
  TGI: > 10 µM
SN12C renal
  TGI: > 10 µM
SNB-75 CNS
  TGI: > 10 µM
SR leukemia
  TGI: > 10 µM
SW-620 colon
  TGI: > 10 µM
T-47D breast
  TGI: > 10 µM
TK-10 renal
  TGI: > 10 µM
UACC-257 melanoma
  TGI: > 10 µM
UACC-62 melanoma
  TGI: > 10 µM

## COP(=O)(OC)C(Cc1cn(C(C)=O)c2ccccc12)C(=O)O (stereo not given)
A498 renal
  TGI: > 100 µM
A549 NSCLC
  TGI: > 100 µM
ACHN renal
  TGI: > 100 µM
CAKI-1 renal
  TGI: > 100 µM
CCRF-CEM leukemia
  TGI: > 100 µM
COLO 205 colon
  TGI: > 100 µM
DU-145 prostate
  TGI: > 100 µM
HCC-2998 colon
  TGI: > 100 µM
HCT-116 colon
  TGI: > 100 µM
HCT-15 colon
  TGI: > 100 µM
HL-60(TB) leukemia
  TGI: > 100 µM
HOP-62 NSCLC
  TGI: > 100 µM
HOP-92 NSCLC
  TGI: > 100 µM
HS 578T breast
  TGI: > 100 µM
HT29 colon
  TGI: > 100 µM
IGROV1 ovarian
  TGI: > 100 µM
K-562 leukemia
  TGI: > 100 µM
LOX IMVI melanoma
  TGI: > 100 µM
M14 melanoma
  TGI: > 100 µM
MCF7 breast
  TGI: > 100 µM
MDA-MB-231 breast
  TGI: > 100 µM
MDA-N
  TGI: > 100 µM
MOLT-4 leukemia
  TGI: > 100 µM
NCI-H226 lung
  TGI: > 100 µM
NCI-H23 lung
  TGI: > 100 µM
NCI-H460 lung
  TGI: > 100 µM
NCI-H522 lung
  TGI: > 100 µM
NCI/ADR-RES ovarian
  TGI: > 100 µM
OVCAR-3 ovarian
  TGI: > 100 µM
OVCAR-4 ovarian
  TGI: > 100 µM
OVCAR-5 ovarian
  TGI: > 100 µM
OVCAR-8 ovarian
  TGI: > 100 µM
PC-3 prostate
  TGI: > 100 µM
RPMI-8226 leukemia
  TGI: > 100 µM
SF-295 CNS
  TGI: > 100 µM
SK-MEL-2 melanoma
  TGI: > 100 µM
SK-MEL-28 melanoma
  TGI: > 100 µM
SK-MEL-5 melanoma
  TGI: > 100 µM
SK-OV-3 ovarian
  TGI: > 100 µM
SN12C renal
  TGI: > 100 µM
SNB-19 CNS
  TGI: > 100 µM
SNB-75 CNS
  TGI: > 100 µM
SR leukemia
  TGI: > 100 µM
SW-620 colon
  TGI: > 100 µM
T-47D breast
  TGI: > 100 µM
TK-10 renal
  TGI: > 100 µM
U251 CNS
  TGI: > 100 µM
UACC-257 melanoma
  TGI: > 100 µM
UO-31 renal
  TGI: > 100 µM

## CC(=O)N1CC(C)(C)c2c(C)c(O)c(C)c(C)c21
786-0 renal
  TGI: > 100 µM
A498 renal
  TGI: > 100 µM
A549 NSCLC
  TGI: > 100 µM
ACHN renal
  TGI: > 100 µM
CCRF-CEM leukemia
  TGI: > 100 µM
COLO 205 colon
  TGI: > 100 µM
DU-145 prostate
  TGI: > 100 µM
EKVX NSCLC
  TGI: > 100 µM
HCC-2998 colon
  TGI: > 100 µM
HCT-116 colon
  TGI: > 100 µM
HCT-15 colon
  TGI: > 100 µM
HL-60(TB) leukemia
  TGI: > 100 µM
HOP-62 NSCLC
  TGI: > 100 µM
HOP-92 NSCLC
  TGI: > 100 µM
HS 578T breast
  TGI: > 100 µM
HT29 colon
  TGI: > 100 µM
IGROV1 ovarian
  TGI: > 100 µM
K-562 leukemia
  TGI: > 100 µM
KM12 colon
  TGI: > 100 µM
LOX IMVI melanoma
  TGI: > 100 µM
M14 melanoma
  TGI: > 100 µM
MCF7 breast
  TGI: > 100 µM
MDA-MB-231 breast
  TGI: > 100 µM
MDA-MB-435
  TGI: > 100 µM
MDA-N
  TGI: > 100 µM
MOLT-4 leukemia
  TGI: > 100 µM
NCI-H226 lung
  TGI: > 100 µM
NCI-H23 lung
  TGI: > 100 µM
NCI-H460 lung
  TGI: > 100 µM
NCI-H522 lung
  TGI: > 100 µM
NCI/ADR-RES ovarian
  TGI: > 100 µM
OVCAR-3 ovarian
  TGI: > 100 µM
OVCAR-4 ovarian
  TGI: > 100 µM
OVCAR-5 ovarian
  TGI: > 100 µM
OVCAR-8 ovarian
  TGI: > 100 µM
PC-3 prostate
  TGI: > 100 µM
RPMI-8226 leukemia
  TGI: > 100 µM
RXF 393 renal
  TGI: > 100 µM
SF-268 CNS
  TGI: > 100 µM
SF-295 CNS
  TGI: > 100 µM
SF-539 CNS
  TGI: > 100 µM
SK-MEL-28 melanoma
  TGI: > 100 µM
SK-MEL-5 melanoma
  TGI: > 100 µM
SK-OV-3 ovarian
  TGI: > 100 µM
SN12C renal
  TGI: > 100 µM
SNB-19 CNS
  TGI: > 100 µM
SNB-75 CNS
  TGI: > 100 µM
SW-620 colon
  TGI: > 100 µM
T-47D breast
  TGI: > 100 µM
TK-10 renal
  TGI: > 100 µM
U251 CNS
  TGI: > 100 µM
UACC-257 melanoma
  TGI: > 100 µM
UACC-62 melanoma
  TGI: > 100 µM
UO-31 renal
  TGI: > 100 µM
